Test results: patent US20110142842A1, “POLYPEPTIDES” (Medinnova AS, priority 2007, published 2011)
Where “and” joins values, the source holds several entries; their conditions need not be identical. Equal entries are not always repeated. Where two headings read alike, the source gives them in different places.

How the values were obtained:
[1] = test system: autologous responder cells (monocyte-depleted PBMC) from HLA-A*0201-negative donors; test: Induction of pentamer positive CD8+ T cells by peptide-pulsed HLA-A*0201-transfected moDC (Example 8); format: cell-based, human; details: for Day 12 % pent+/CD8+: day 12 of co-culture; for Day 19 % pent+/CD8+: day 19 of co-culture, after restimulation; for Day 12 Donors / Day 19 Donors: donors with positive response / donors tested
Method: MoDC transfected with HLA-A*0201 mRNA were harvested 18 hours after transfection and resuspended in 1-2 ml of serum-free DC-medium containing 50 μg/ml peptide, such as MART-1 or peptide #19. The cells were incubated at 37° C., 5% CO2 for 4 hours, then washed once in serum-free RPMI.
Stimulator and responder cells were seeded at a stimulator to responder (S:R) ratio of 1:10, with 3.0×10^6 responders per well in serum-free DC medium containing 10 ng/ml IL-7 (PeproTech EC Ltd.), 50 pg/ml IL-12 (PeproTech EC Ltd.), and PPD at 1 μg/ml.
On day 12 the responder cells were harvested and analyzed for the presence of pentamer positive cells. The cells were either sorted or restimulated.
Restimulation was done with autologous EBV-LCL transfected with HLA-A*0201 mRNA 12-24 hours prior to stimulation, harvested and resuspended in 1-2 ml of serum-free X-Vivo 20 (Cambrex) containing the same peptide as added on day 0 at 20 μg/ml, and incubated for 4 hours at 37° C., 5% CO2. Following incubation, the EBV-LCL were washed once in serum-free RPMI.
From day 12 of co-culture with stimulator cells, the responders were harvested, counted and analyzed for the presence of pentamer positive cells weekly. The responder cells were either restimulated, as described above, or the pentamer positive cells were sorted and expanded as described below.
Monocyte-derived dendritic cells (moDC) from HLA-A*0201-negative donors were transfected with HLA-A*0201 mRNA after maturation. 18-24 hours post-transfection the cells were pulsed with the peptides indicated in Table 2 for four hours, before co-culturing them with autologous responder cells (monocyte-depleted PBMC). On day 12 and day 19 and in some cases at day 26 of co-culture, the cells were harvested, stained with relevant peptide-MHC-pentamer and analyzed by flow cytometry. The percentage of pentamer positive cells was calculated by dividing the number of pentamer positive cells by the number of CD8+ cells. On day 12 and day 19, the cells were restimulated with autologous EBV-cells that were transfected with HLA-A*0201 mRNA and loaded for four hours with the relevant peptides indicated in Table 2.

HLA-A*0201 = HLA-A*0201 (Homo sapiens, UniProt P04439, D140Y/D185E/D98H/E176V/E277Q/G131W/G231S/I119V/I121R/I166T/I218V/L300P/L318F/N151K/N90K/P208A/P217A/Q86G/Q94H/R138H/R169H/T345S); test: REVEAL MHC molecule binding assay (ProImmune)
[2] = test system: CD8+ T cells from HLA-A*0201 negative donors; test: Induction of allo-restricted pentamer+ T cells by peptide-pulsed A2-moDC (Example 9); format: cell-based, human; details: three donors respectively, 19 days of culture
Method: Mature moDCs were harvested 18 hours after transfection with HLA-A*0201 mRNA, pulsed with 50 μg/ml MART-1 peptide or CD339-17 peptide for 4 hours, washed and co-cultured with thawed, non-adherent cells (see above) at a ratio of 1:10 in CellGro DC medium in the presence of 10 ng/ml IL-7 (PeproTech EC Ltd.) and 50 pg/ml IL-12 (PeproTech EC Ltd.), with the addition of 10 ng/ml IL-7 on day 7. Cells were harvested day 12 and analyzed for the presence of pentamer^+ cells. The co-cultures stimulated with the CD339-17 peptide were re-stimulated on day 12 with HLA-A*0201 transfected autologous EBV-LCL for an additional 7 days before harvest.
Co-cultured cells were harvested and stained with A2/MART-1 pentamer or A2/CD33 pentamer, fluorotag and anti-CD8 according to the manufacturers' instructions. Sorting was performed by flow cytometry (FACS Aria Cell sorter, BD Biosciences, San Jose, Calif.) or by magnetic beads to a purity of >98%. Pentamer^+ cells labelled with fluorotag conjugated to PE were isolated using MACS Anti-PE MicroBeads (Miltenyi Biotec, Bergisch Gladbach, Germany) followed by separation over two subsequent MACS MS Columns (Miltenyi Biotec).

[3] = day 26 per footnote c, printed in Day 19 column

Substance | Day 12 % pent+/CD8+ [1] [%] | Day 19 % pent+/CD8+ [1] | Day 12 Donors [1] | Day 19 Donors [1] | % Pass/fail control (HLA-A*0201; level of binding relative to pass/fail control binder designated 100%) [%] | % Pass/fail control (HLA-A*0201) [%] | % pent+/CD8+ (results d26) [1, 3] [%] | Donors (results d26) [1, 3] | frequencies of pentamer+ cells [2]
LMGTLIAKV (homo sapiens) [Peptide 83, from HA-1] | 0 | 0% | 0/2 | 0/2 | – | – | – | – | –
LLQRPGLQL (homo sapiens) [Peptide 126, from CD64] | 0.01 | 0.06% | 1/2 | 1/2 | – | – | – | – | –
SLWRRPFNV (homo sapiens) [Peptide 22, from MPO] | 0 | 0.09% | 0/2 | 1/2 | – | – | – | – | –
SVDPRIANV [139] (SLDPRIANV; homo sapiens) [Peptide 139, modified peptide, MPO] | – | – | – | – | 231.5 | – | – | – | –
FVANAIIHL (homo sapiens) [Peptide 111, from CD52] | 0 | 0% | 0/2 | 0/2 | – | – | – | – | –
FLDCQIHRV (homo sapiens) [Peptide 7, from CD127] | 0 | 0% | 0/2 | 0/2 | – | – | – | – | –
ILFAFVSSV (homo sapiens) [Peptide 25, from FLT3] | 0 | 0% | 1/2 | 0/2 | – | – | – | – | –
VLWHWLLRT (homo sapiens) [Peptide 105, from CD19] | 0 | 0.19% | 0/2 | 4/6 | – | – | – | – | –
YLHVALDLL (homo sapiens) [Peptide 107, from MPO] | 0 | 0.01% | 0/2 | 1/2 | – | – | – | – | –
YLGYTVTWL (homo sapiens) [Peptide 93, from CD11a] | 0.02 | 0.06% | 1/2 | 2/2 | – | – | – | – | –
SMLDDLRNV (homo sapiens) [Peptide 24, from CD18] | 0 | 0.05% | 0/2 | 1/2 | – | – | – | – | –
KLGGDLLRA (homo sapiens) [Peptide 129, from CD18] | 0 | 0% | 0/2 | 0/2 | – | – | – | – | –
ALAVISFLL (homo sapiens) [Peptide 114, from CD7] | 0 | 0% | 0/2 | 0/2 | – | – | – | – | –
LIQPFMFRL (homo sapiens) [Peptide 84, from MPO] | 0 | 0% | 0/5 | 0/4 | – | – | – | – | –
ALPAALAVI (homo sapiens) [Peptide 127, from CD7] | 0 | 0.04% | 0/2 | 1/2 | – | – | – | – | –
LLLTISLLV (homo sapiens) [Peptide 81, from CD52] | 0 | 0.03% | 0/2 | 1/2 | – | – | – | – | –
LVAPRFLEV (homo sapiens) [Peptide 85, from CD50] | 0.13 | 0.30% | 1/4 | 2/5 | – | – | – | – | –
FLYGVILTV (homo sapiens) [Peptide 131] | – | – | – | – | – | 257.0 | – | – | –
KLMSPKLYV (homo sapiens) [Peptide 55, from CD19] | 0.03 | 0.05% | 1/2 | 1/2 | – | – | – | – | –
LLFLTPMEV (homo sapiens) [Peptide 108, from CD19] | 0.03 | 0.09% | 1/2 | 1/2 | – | – | – | – | –
SMFHVTLKI (homo sapiens) [Peptide 128, from CLL-1] | – | – | – | – | – | – | 0.08 | 1/3 | –
KIVEWDWKI (homo sapiens) [Peptide 109, from CD48] | 0.03 | 0.05% | 1/2 | 1/2 | – | – | – | – | –
CD339-17: peptide derived from the CD33 antigen, amino acid sequence 9-17, HLA-A*0201-binding candidate (LLWAGALAM; UniProt P20138 9-17, looked up, fragment) | – | – | – | – | – | – | – | – | 0.13% and 0.32% and 0.55%
FLLLTISLL (homo sapiens) [Peptide 88, from CD52] | 0 | 0.08% and 0% | 0/2 and 0/3 | 2/3 and 0/2 | – | – | – | – | –
RLYQFLLDL (homo sapiens) [Peptide 66, from PU.1] | 0 | 0.03% | 0/2 | 1/2 | – | – | – | – | –
LLWAGALAM (homo sapiens) [Peptide 86, from CD33] | 0.14 | 0.35% | 2/4 | 4/6 | – | – | – | – | –
LLLPLLLAL (homo sapiens) [Peptide 28, from CD7] | 0.01 | 0.19% | 1/2 | 1/2 | – | – | – | – | –
ALYDKTKRI (homo sapiens) [Peptide 115] | 0 | 0% | 0/2 | 0/2 | – | – | – | – | –
